Data: patent publication US12098144B2, “Piperazine indazole glucocorticoid receptor antagonists” (Corcept Therapeutics Incorporated, priority 2021, dated 2024)

Biological target: T1, glucocorticoid receptor (Homo sapiens, UniProt P04150)
T1 construct: endogenous in cells; ATCC cat
T1 sequence (P04150 1-777): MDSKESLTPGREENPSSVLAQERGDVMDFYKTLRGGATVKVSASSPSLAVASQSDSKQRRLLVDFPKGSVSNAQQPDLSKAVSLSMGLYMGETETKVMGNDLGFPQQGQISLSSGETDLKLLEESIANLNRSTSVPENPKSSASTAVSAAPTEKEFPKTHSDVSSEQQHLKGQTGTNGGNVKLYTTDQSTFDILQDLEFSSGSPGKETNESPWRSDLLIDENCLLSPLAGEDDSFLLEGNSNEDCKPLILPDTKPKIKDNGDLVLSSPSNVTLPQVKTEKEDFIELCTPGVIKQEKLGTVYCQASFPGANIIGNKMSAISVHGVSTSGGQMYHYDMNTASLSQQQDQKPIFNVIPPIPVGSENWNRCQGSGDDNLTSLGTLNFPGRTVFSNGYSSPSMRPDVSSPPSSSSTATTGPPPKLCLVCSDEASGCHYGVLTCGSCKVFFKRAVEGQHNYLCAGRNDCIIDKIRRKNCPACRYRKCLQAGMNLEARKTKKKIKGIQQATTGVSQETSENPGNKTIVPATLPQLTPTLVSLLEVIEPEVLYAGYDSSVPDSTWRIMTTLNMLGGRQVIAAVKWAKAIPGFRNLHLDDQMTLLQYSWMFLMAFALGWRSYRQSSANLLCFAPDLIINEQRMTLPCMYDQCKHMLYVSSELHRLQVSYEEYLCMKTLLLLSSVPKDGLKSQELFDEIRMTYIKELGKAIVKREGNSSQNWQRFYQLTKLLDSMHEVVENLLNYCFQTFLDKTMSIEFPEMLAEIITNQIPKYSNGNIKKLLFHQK
Experiment: Hep G2 TAT Ki: inhibition of dexamethasone-induced TAT in HepG2 cells (96 well)
Assay type: cell-based
Details: challenge of 100 nM dexamethasone, IC50 converted to Ki by Cheng and Prusoff equation
Procedure, shortened: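 Cells lysed 15 min at 4 °C; TAT enzyme reaction 2 h at 37 °C, stopped with KOH, 30 min further at 37 °C. Inhibition fitted to 4-parameter logistic.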

SMILES	Ki [nM]
Cc1cc2c(cnn2-c2ccc(F)cc2)cc1C1CN(S(=O)(=O)c2ncn(C)n2)CCN1CC(C)C (single isomer, unassigned) [Example 92, 1-(4-fluorophenyl)-5-(1-isobutyl-4-((1-methyl-1H-1,2,4-triazol-3-yl)sulfonyl)piperazin-2-yl)-6-methyl-1H-indazole]	86
CCN1CCN(S(=O)(=O)c2cnn(C)n2)CC1c1cc2cnn(-c3ccc(F)cc3)c2cc1C (stereo not shown) [Example 15, 5-(1-ethyl-4-((2-methyl-2H-1,2,3-triazol-4-yl)sulfonyl)piperazin-2-yl)-1-(4-fluorophenyl)-6-methyl-1H-indazole]	260
CC(=O)N1CCN(CC(C)C)C(c2cc3cnn(-c4ccc(F)cc4)c3cc2C)C1 (stereo not shown) [Example 66, 1-(3-(1-(4-fluorophenyl)-6-methyl-1H-indazol-5-yl)-4-isobutylpiperazin-1-yl)ethan-1-one]	260
Cc1cc2c(cnn2-c2ccc(F)cc2)cc1C1CN(S(=O)(=O)c2cnn(C)n2)CCN1CC1(C#N)CC1 (stereo not shown) [Example 69, 1-((2-(1-(4-fluorophenyl)-6-methyl-1H-indazol-5-yl)-4-((2-methyl-2H-1,2,3-triazol-4-yl)sulfonyl)piperazin-1-yl)methyl)cyclopropane-1-carbonitrile]	180
Cc1cc2c(cnn2-c2ccc(F)cc2)cc1C1CN(S(=O)(=O)c2cnn(C)n2)CCN1CC1CC(F)C1 (single isomer, unassigned) [Example 156, 5-(1-((3-fluorocyclobutyl)methyl)-4-((2-methyl-2H-1,2,3-triazol-4-yl)sulfonyl)piperazin-2-yl)-1-(4-fluorophenyl)-6-methyl-1H-indazole]	28
Cc1cc2c(cnn2-c2ccc(F)cc2)cc1C1CN(S(=O)(=O)Cc2ccc(C#N)cc2)CCN1CC(C)C (single isomer, unassigned) [Example 114, 4-(((3-(1-(4-fluorophenyl)-6-methyl-1H-indazol-5-yl)-4-isobutylpiperazin-1-yl)sulfonyl)methyl)benzonitrile]	55
Cc1cc2c(cnn2-c2ccc(F)cc2)cc1C1CN(S(=O)(=O)CC(C)C)CCN1CCC(F)(F)F (single isomer, unassigned) [Example 137, 1-(4-fluorophenyl)-5-(4-(isobutylsulfonyl)-1-(3,3,3-trifluoropropyl)piperazin-2-yl)-6-methyl-1H-indazole]	33
Cc1cc2c(cnn2-c2ccc(F)cc2)cc1C1CN(S(=O)(=O)c2cnn(C)n2)CCN1CC1CCC1 (single isomer, unassigned) [Example 74, 5-(1-(cyclobutylmethyl)-4-((2-methyl-2H-1,2,3-triazol-4-yl)sulfonyl)piperazin-2-yl)-1-(4-fluorophenyl)-6-methyl-1H-indazole]	160
Cc1cc2c(cnn2-c2ccc(F)cc2)cc1C1CN(S(=O)(=O)c2cnn(C)n2)CCN1CC1CC(=O)N(C)C1 (single isomer, unassigned) [Example 121, 4-((2-(1-(4-fluorophenyl)-6-methyl-1H-indazol-5-yl)-4-((2-methyl-2H-1,2,3-triazol-4-yl)sulfonyl)piperazin-1-yl)methyl)-1-methylpyrrolidin-2-one]	270
Cc1cc2c(cnn2-c2ccc(F)cc2)cc1C1CN(S(=O)(=O)c2cnn(C)n2)CCN1CC1CC(F)(F)C1 (single isomer, unassigned) [Example 76, 5-(1-((3,3-difluorocyclobutyl)methyl)-4-((2-methyl-2H-1,2,3-triazol-4-yl)sulfonyl)piperazin-2-yl)-1-(4-fluorophenyl)-6-methyl-1H-indazole]	22
COc1cc2c(cnn2-c2ccc(F)cc2)cc1C1CN(S(=O)(=O)c2cnn(C)n2)CCN1CC(C)C (stereo not shown) [Example 22, 1-(4-fluorophenyl)-5-(1-isobutyl-4-((2-methyl-2H-1,2,3-triazol-4-yl)sulfonyl)piperazin-2-yl)-6-methoxy-1H-indazole]	57
Cc1cc2c(cnn2-c2ccc(F)cc2)cc1C1CN(S(=O)(=O)c2nncn2C)CCN1CC(C)C (single isomer, unassigned) [Example 94, 1-(4-fluorophenyl)-5-(1-isobutyl-4-((4-methyl-4H-1,2,4-triazol-3-yl)sulfonyl)piperazin-2-yl)-6-methyl-1H-indazole]	74
Cc1cc2c(cnn2-c2ccc(F)cc2)cc1C1CN(S(=O)(=O)c2c(C)nnn2C)CCN1CC(C)C (single isomer, unassigned) [Example 100, 5-(4-((1,4-dimethyl-1H-1,2,3-triazol-5-yl)sulfonyl)-1-isobutylpiperazin-2-yl)-1-(4-fluorophenyl)-6-methyl-1H-indazole]	42
Cc1cc2c(cnn2-c2ccc(F)cc2)cc1C1CN(S(=O)(=O)c2cccnc2)CCN1CCC(F)(F)F (single isomer, unassigned) [Example 132, 1-(4-fluorophenyl)-6-methyl-5-(4-(pyridin-3-ylsulfonyl)-1-(3,3,3-trifluoropropyl)piperazin-2-yl)-1H-indazole]	13
Cc1cc2c(cnn2-c2ccc(F)cc2)cc1C1CN(S(=O)(=O)c2cnn(C)n2)CCN1CC1CCOC1 (single isomer, unassigned) [Example 85, 1-(4-fluorophenyl)-6-methyl-5-(4-((2-methyl-2H-1,2,3-triazol-4-yl)sulfonyl)-1-((tetrahydrofuran-3-yl)methyl)piperazin-2-yl)-1H-indazole]	29
Cc1cc2c(cnn2-c2ccc(F)cc2)cc1C1CN(S(=O)(=O)c2nn(C)nc2C)CCN1CC(C)C (single isomer, unassigned) [Example 93, 5-(4-((2,5-dimethyl-2H-1,2,3-triazol-4-yl)sulfonyl)-1-isobutylpiperazin-2-yl)-1-(4-fluorophenyl)-6-methyl-1H-indazole]	36
Cc1cc2c(cnn2-c2ccc(F)cc2)cc1C1CN(S(=O)(=O)c2cnn(C)c2)CCN1CC(C)C (stereo not shown) [Example 7, 1-(4-fluorophenyl)-5-(1-isobutyl-4-((1-methyl-1H-pyrazol-4-yl)sulfonyl)piperazin-2-yl)-6-methyl-1H-indazole]	62
Cc1ncc(S(=O)(=O)N2CCN(CCC(F)(F)F)C(c3cc4cnn(-c5ccc(F)cc5)c4cc3C)C2)s1 (single isomer, unassigned) [Example 133, 5-((3-(1-(4-fluorophenyl)-6-methyl-1H-indazol-5-yl)-4-(3,3,3-trifluoropropyl)piperazin-1-yl)sulfonyl)-2-methylthiazole]	11
Cc1cc2c(cnn2-c2ccc(F)cc2)cc1C1CN(S(=O)(=O)C2CCC2)CCN1CCC(F)(F)F (single isomer, unassigned) [Example 140, 5-(4-(cyclobutylsulfonyl)-1-(3,3,3-trifluoropropyl)piperazin-2-yl)-1-(4-fluorophenyl)-6-methyl-1H-indazole]	47
Cc1cc2c(cnn2-c2ccc(F)cc2)cc1C1CN(S(=O)(=O)c2cnn(C)n2)CCN1C1CCC1 (single isomer, unassigned) [Example 25, 5-(1-cyclobutyl-4-((2-methyl-2H-1,2,3-triazol-4-yl)sulfonyl)piperazin-2-yl)-1-(4-fluorophenyl)-6-methyl-1H-indazole]	77
Cc1cc2c(cnn2-c2ccc(F)cc2)cc1C1CN(S(=O)(=O)C2CCC2)CCN1CC(C)C (single isomer, unassigned) [Example 116, 5-(4-(cyclobutylsulfonyl)-1-isobutylpiperazin-2-yl)-1-(4-fluorophenyl)-6-methyl-1H-indazole]	25
Cc1cc2c(cnn2-c2ccc(F)cc2)cc1C1CN(S(=O)(=O)c2ccc(C#N)cc2)CCN1CC(C)C (single isomer, unassigned) [Example 98, 4-((3-(1-(4-fluorophenyl)-6-methyl-1H-indazol-5-yl)-4-isobutylpiperazin-1-yl)sulfonyl)benzonitrile]	25
Cc1cc2c(cnn2-c2ccc(F)cc2)cc1C1CN(S(=O)(=O)c2cnn(C)n2)CCN1CC1(F)CC1 (single isomer, unassigned) [Example 73, 5-(1-((1-fluorocyclopropyl)methyl)-4-((2-methyl-2H-1,2,3-triazol-4-yl)sulfonyl)piperazin-2-yl)-1-(4-fluorophenyl)-6-methyl-1H-indazole]	170
COc1ccc(S(=O)(=O)N2CCN(CC(C)C)C(c3cc4cnn(-c5ccc(F)cc5)c4cc3C)C2)cn1 (single isomer, unassigned) [Example 103, 1-(4-fluorophenyl)-5-(1-isobutyl-4-((6-methoxypyridin-3-yl)sulfonyl)piperazin-2-yl)-6-methyl-1H-indazole]	35
CC(=O)N1CCN(S(=O)(=O)c2cnn(C)n2)CC1c1cc2cnn(-c3ccc(F)cc3)c2cc1C (stereo not shown) [Example 34, 1-(2-(1-(4-fluorophenyl)-6-methyl-1H-indazol-5-yl)-4-((2-methyl-2H-1,2,3-triazol-4-yl)sulfonyl)piperazin-1-yl)ethan-1-one]	430
